# From patent US12162895B2, “DNA polymerase theta inhibitor for treatment of cancer” (Breakpoint Therapeutics GmbH, priority 2023, dated 2024)
# Biological target: T1, Polθ (Homo sapiens, UniProt O75417)
# T1 construct: a truncated Pole protein (Pole-Hel containing the helicase domain (67-894))
# Experiment: Polθ ATPase assay (Biological Assay 1, ADP-Glo luminescence)
# Format: biochemical
# Conditions: truncated Polθ protein containing the helicase domain (67-894), ssDNA oligo, ATP, in vitro
# Description: The Pole ATPase assay was used to evaluate inhibitors of Pole ATPase activity, in vitro. Experiments were performed using a truncated Pole protein (Pole-Hel containing the helicase domain (67-894), ATP and a DNA single strand Oligo (5′-CTGTCCTGCATGATG-3′) in the Pole assay buffer (20 mM Tris-HCl (pH 8.8), MgCl2 5 mM, tween20 0.01%, NP40 0.01%, BSA 0.01%, DTT 1 mM). 2 μL of assay buffer containing Pole-Hel protein (0.5 nM) and DNA substrate (500 nM) was transferred into assay ready plates, containing 0.04 μL of compounds diluted in DMSO. After a 30 minutes incubation at 23° C. in the dark, the reaction was triggered by adding 2 μL of ATP (60 μM), in assay buffer. After 60 minutes at 23° C., 4 μl of ADP-Glo™ Reagent (Glo 1) was added followed by 40 minutes of incubation, then 8 μl of ADP-Glo™ kinase Detection Reagent (Glo 2) followed by 60 minutes of incubation at 23° C. Luminescence was then measured using Tecan F200 infinite plate reader. Raw data were analysed using GeneData to generate IC50 values.
# The Pole ATPase assay described in Biological Assay 1 above was used to evaluate inhibitors of Pole ATPase activity for the compounds described in the Experimental Part B above, in vitro.
# T1 sequence (O75417 67-894): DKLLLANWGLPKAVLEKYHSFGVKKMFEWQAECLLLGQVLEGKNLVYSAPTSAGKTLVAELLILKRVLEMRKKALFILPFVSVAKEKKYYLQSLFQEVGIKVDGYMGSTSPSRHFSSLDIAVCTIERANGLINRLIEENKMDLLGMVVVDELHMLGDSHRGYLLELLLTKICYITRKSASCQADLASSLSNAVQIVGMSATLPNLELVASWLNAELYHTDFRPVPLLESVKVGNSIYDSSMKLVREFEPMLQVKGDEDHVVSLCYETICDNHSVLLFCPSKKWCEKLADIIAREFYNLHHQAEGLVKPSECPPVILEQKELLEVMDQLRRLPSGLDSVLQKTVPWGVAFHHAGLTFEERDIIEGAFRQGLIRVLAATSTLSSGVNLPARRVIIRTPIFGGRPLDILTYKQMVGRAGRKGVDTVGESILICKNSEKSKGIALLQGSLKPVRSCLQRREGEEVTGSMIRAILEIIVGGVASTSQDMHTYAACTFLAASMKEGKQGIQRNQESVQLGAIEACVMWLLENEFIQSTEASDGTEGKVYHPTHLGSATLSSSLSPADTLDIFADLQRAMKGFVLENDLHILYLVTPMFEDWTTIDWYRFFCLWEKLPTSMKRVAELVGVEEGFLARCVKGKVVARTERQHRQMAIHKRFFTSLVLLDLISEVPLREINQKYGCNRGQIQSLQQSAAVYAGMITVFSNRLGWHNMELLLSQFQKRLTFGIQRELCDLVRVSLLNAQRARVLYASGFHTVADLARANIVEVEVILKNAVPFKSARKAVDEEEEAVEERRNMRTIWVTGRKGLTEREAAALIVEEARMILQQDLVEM
substance,measurement,value
"5′-methoxy-2′,6-dimethyl-N-[5-(morpholin-4-yl)-[1,3]thiazolo[5,4-d]pyrimidin-2-yl]-[4,4′-bipyridine]-3-carboxamide [Example 92]",IC50,< 100 nM
